ChEMBL document CHEMBL1201862, “PubChem BioAssay data set” (2004)
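How tested: cells in 96-well plates exposed to compound for 48 hours at five concentrations. GI50 marks 50% less growth.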 The source made the active and inactive calls. Rule as the data show it: active = GI50 up to about 1.1 µM and inactive = higher.

Columns and labels:
Assay in all cases: NCI tumour cell line growth inhibition, 48 h
A498 = system: A498
HCC 2998 = system: HCC 2998
HCT-116 = system: HCT-116
HL-60 = system: HL-60
HOP-92 = system: HOP-92
HT-29 = system: HT-29
IGROV-1 = system: IGROV-1
MDA-MB-231 = system: MDA-MB-231
MDA-MB-435 = system: MDA-MB-435
MOLT-4 = system: MOLT-4
Malme-3M = system: Malme-3M
NCI-H460 = system: NCI-H460
OVCAR-4 = system: OVCAR-4
OVCAR-5 = system: OVCAR-5
RXF 393 = system: RXF 393
SN12C = system: SN12C
UACC-257 = system: UACC-257
UACC-62 = system: UACC-62
UO-31 = system: UO-31
DLD-1 = system: DLD-1

| SMILES | GI50 (A498) | GI50 (HCC 2998) | GI50 (HCT-116) | GI50 (HL-60) | GI50 (HOP-92) | GI50 (HT-29) | GI50 (IGROV-1) | GI50 (MDA-MB-231) | GI50 (MDA-MB-435) | GI50 (MOLT-4) | GI50 (Malme-3M) | GI50 (NCI-H460) | GI50 (OVCAR-4) | GI50 (OVCAR-5) | GI50 (RXF 393) | GI50 (SN12C) | GI50 (UACC-257) | GI50 (UACC-62) | GI50 (UO-31) | GI50 (DLD-1) |
| --- | --- | --- | --- | --- | --- | --- | --- | --- | --- | --- | --- | --- | --- | --- | --- | --- | --- | --- | --- | --- |
| COc1cc2c(cc1OC)C(=O)/C(=C/c1cc(C)c(O)c(C)c1)C2 | > 21.2 µM (inactive) | < 0.0407 µM (active) | < 0.0112 µM (active) | < 0.01 µM (active) | > 100 µM (inactive) | 5.19 µM (inactive) | < 0.0166 µM (active) | 0.0171 µM (active) | < 0.01 µM (active) | < 0.01 µM (active) | < 0.01 µM (active) | < 0.01 µM (active) | > 100 µM (inactive) | 1.63 µM (inactive) | < 0.0504 µM (active) | 0.0244 µM (active) | 0.755 µM (active) | < 0.0168 µM (active) | > 100 µM (inactive) |  |
| CC(=O)O/N=C/c1cc2c(cc1Br)OCO2 |  | > 349 µM (inactive) |  | > 349 µM (inactive) | > 349 µM (inactive) | > 349 µM (inactive) | > 349 µM (inactive) |  |  | > 349 µM (inactive) | > 349 µM (inactive) | > 349 µM (inactive) |  | > 349 µM (inactive) | > 349 µM (inactive) | > 349 µM (inactive) | > 349 µM (inactive) | > 349 µM (inactive) |  | > 349 µM (inactive) |
| CCC12CCCNC1c1c(n(C)c3ccccc13)C(C(=O)OC)C2 (stereo not given) |  | 67.8 µM (inactive) | 37.6 µM (inactive) | 72.9 µM (inactive) | 16.3 µM (inactive) | 38.1 µM (inactive) | 61.4 µM (inactive) |  |  | 68.7 µM (inactive) | 80.2 µM (inactive) | 76.9 µM (inactive) |  | 67 µM (inactive) | 36.5 µM (inactive) | 78.3 µM (inactive) | 59.2 µM (inactive) | 56.8 µM (inactive) |  | 76.4 µM (inactive) |
| CC(=O)O[C@H]1CC[C@@]2(C)C(=CC[C@@H]3C2CC[C@]2(C)Nc4c(cnn4-c4ccccc4)CC32)C1 (stereo not given in full) | 10.6 µM (inactive) | 16 µM (inactive) | 24.4 µM (inactive) | 2.77 µM (inactive) |  | 4.82 µM (inactive) | 20.6 µM (inactive) |  |  | 2.07 µM (inactive) | 29.9 µM (inactive) | 4.97 µM (inactive) | 14.9 µM (inactive) | 19.2 µM (inactive) | 3.53 µM (inactive) |  | 12.4 µM (inactive) | 18.7 µM (inactive) | 27.1 µM (inactive) | 21.4 µM (inactive) |
| COc1cc(C)c(C(=O)/C=C/c2cc(OC)c(O)c(OC)c2)cc1O | 31.6 µM (inactive) | 16.4 µM (inactive) | 14.1 µM (inactive) | 22.1 µM (inactive) |  | 30.6 µM (inactive) | 28.9 µM (inactive) |  |  | > 100 µM (inactive) | 20.1 µM (inactive) | 25.1 µM (inactive) | 21 µM (inactive) | 27.6 µM (inactive) |  |  | 31.1 µM (inactive) | 17.7 µM (inactive) | 23 µM (inactive) | 15.3 µM (inactive) |
| O=C1c2ccccc2C(=O)N1CCSCC(CO)SCCN1C(=O)c2ccccc2C1=O (stereo not given) | > 100 µM (inactive) | > 100 µM (inactive) | > 100 µM (inactive) | 9.98 µM (inactive) | > 100 µM (inactive) | > 100 µM (inactive) | > 100 µM (inactive) | > 100 µM (inactive) | > 100 µM (inactive) | 74 µM (inactive) | > 100 µM (inactive) | > 100 µM (inactive) | 48.6 µM (inactive) | > 100 µM (inactive) | > 100 µM (inactive) | > 100 µM (inactive) | > 100 µM (inactive) | 90.2 µM (inactive) | > 100 µM (inactive) |  |
| C=CCOC1CC(n2cnc3c(N)ncnc32)OC1CO (stereo not given) |  | > 100 µM (inactive) | > 100 µM (inactive) | > 100 µM (inactive) | > 100 µM (inactive) | > 100 µM (inactive) | > 100 µM (inactive) |  |  | > 100 µM (inactive) | > 100 µM (inactive) | > 100 µM (inactive) | > 100 µM (inactive) | > 100 µM (inactive) |  |  | > 100 µM (inactive) | > 100 µM (inactive) | > 100 µM (inactive) | > 100 µM (inactive) |
| O=C(O)COc1ccc(O)c2c1C(=O)CCCC2=O | > 100 µM (inactive) | > 100 µM (inactive) | > 100 µM (inactive) | > 100 µM (inactive) |  | > 100 µM (inactive) | > 100 µM (inactive) |  |  | > 100 µM (inactive) | > 100 µM (inactive) | > 100 µM (inactive) | > 100 µM (inactive) | > 100 µM (inactive) |  | > 100 µM (inactive) | > 100 µM (inactive) | > 100 µM (inactive) | > 100 µM (inactive) | > 100 µM (inactive) |
| CCCCCCCC(=O)OCC(COC(=O)C(C)(C)C)OC(=O)Cc1ccccc1 (stereo not given) | > 100 µM (inactive) | > 100 µM (inactive) | > 100 µM (inactive) | > 100 µM (inactive) | > 100 µM (inactive) |  | > 100 µM (inactive) |  |  | > 100 µM (inactive) | > 100 µM (inactive) | > 100 µM (inactive) | > 100 µM (inactive) | > 100 µM (inactive) |  | > 100 µM (inactive) |  | > 100 µM (inactive) | > 100 µM (inactive) | > 100 µM (inactive) |
| C=C1c2ccccc2N(S(=O)(=O)c2ccc(C)cc2)C12CCCCC2 |  | > 100 µM (inactive) | 33 µM (inactive) | 19.8 µM (inactive) | 4.27 µM (inactive) | 52.4 µM (inactive) | > 100 µM (inactive) |  |  | 30.4 µM (inactive) | 34.8 µM (inactive) | 86.7 µM (inactive) | 53.1 µM (inactive) | > 100 µM (inactive) | 45.6 µM (inactive) | > 100 µM (inactive) | 36 µM (inactive) | 62.2 µM (inactive) | > 100 µM (inactive) | > 100 µM (inactive) |
| COc1cc(C2C(C(=O)O)=C(COC(C)=O)Oc3cc4c(cc32)OCO4)cc(OC)c1OC(C)=O (stereo not given) |  |  | > 100 µM (inactive) | > 100 µM (inactive) | > 100 µM (inactive) | > 100 µM (inactive) | > 100 µM (inactive) |  |  | > 100 µM (inactive) | > 100 µM (inactive) | > 100 µM (inactive) | > 100 µM (inactive) |  | > 100 µM (inactive) | > 100 µM (inactive) | > 100 µM (inactive) | > 100 µM (inactive) | > 100 µM (inactive) | > 100 µM (inactive) |
| CCNC(=S)N/N=C1\C(=O)Nc2ccc([N+](=O)[O-])cc21 | 22.9 µM (inactive) | 24.9 µM (inactive) | 27.7 µM (inactive) | 92.9 µM (inactive) | 34 µM (inactive) | 49.5 µM (inactive) | 31.6 µM (inactive) | 35.3 µM (inactive) | 88.1 µM (inactive) | 22.4 µM (inactive) | 57.8 µM (inactive) | 20.4 µM (inactive) | 25.6 µM (inactive) | > 100 µM (inactive) | 26 µM (inactive) | 31.7 µM (inactive) | 53.5 µM (inactive) | 99.1 µM (inactive) | 25.8 µM (inactive) |  |
